Experiments:
blood = conditions: 0.1M NaHCO3 in drinking water
Procedure: Flow cytometry: With the exception of one group of rats (n=5+5), in all HS fed Dah SS rats, blood pressure telemetry devices were implanted prior to beginning the study. […] No surgical procedures were performed on LS fed Dahl SS rats or Sprague Dawley rats prior to tissue harvest. On the day of tissue harvest rats were anesthetized with isoflurane (2-5%) and a midline incision was performed. The abdominal aorta was catheterized for the collection of ˜2mL of arterial blood in a heparinized tube and the left kidney excised and immediately processed for flow cytometry. Antibody markers utilized for flow cytometry as well as references are given in the online methods.
In all flow studies, cells were then incubated with antibodies for surface markers for 20 minutes on ice in the dark (all antibodies from Pharmingen-BD-Biosciences, San Jose, Calif.). Cells were then washed with PBS, fixed and permeabilized using FOXP3/Transcription Factor Fix/Perm Buffer (eBiosciences, San Diego, Calif.) for 15 minutes in the dark on ice, and washed once again with PBS before incubation with antibodies for intracellular staining of Foxp3, TNFa, IL-10, and IL-17, on ice in the dark for 20 minutes (BD Biosciences). Cells were then washed and run through a four-color flow cytometer (FACS Calibur, Becton-Dickinson), and data were collected using CellQuest software.
In all flow studies, group identifiers were removed and flow cytometry analysis was performed by an investigator unaware of the hypothesis or the origin of samples. Samples were double-stained with control IgG and cell markers and were used to assess any spillover signal of fluorochromes; proper compensation was set to ensure the median fluorescence intensities of negative and positive cells were identical and were both gated populations. Gating was used to exclude dead cells and debris using forward and side scatterplots. In each analysis, 100,000 total events were collected. As a gating strategy, for each sample, isotype-matched controls were analyzed to set the appropriate gates. For each marker, samples were analyzed in duplicate measurements. To minimize false-positive events, the number of double- positive events detected with the isotype controls was subtracted from the number of double-positive cells stained with corresponding antibodies (not isotype control), respectively. Cells expressing a specific marker were reported as a percentage of the number of gated events.
(§1) Rat protocols: Dahl SS rats: All rats were maintained on low salt chow with ad libitum water (tap water). […] Following four days of low salt (LS) feeding, rats were placed on an 8% HS diet (AIN76A 8%; Dyets) for two weeks. 24 hour urine collections were obtained on day 3 of low salt and day 7 and day 14 of high salt feeding if applicable. Following 14 days of HS feeding, rats were anesthetized with isoflurane (2-5%) and tissue harvested for analysis.
Dahl SS rats on the LS protocol were treated identically to the HS protocol above except following 4 days of LS rats were anesthetized and tissue harvested for flow cytometric analysis prior to beginning a HS diet.

[1] = 0.1M in drinking water
Procedure: Urine collection: For urine collection rats were placed in rat metabolic cages for 24 hours (Nalgene, Rochester, N.Y.). Urine was collected and weighed for volume determination. Up to 10 mL of urine was stored at −80° C. for later analysis. All urinary data are presented as 24 hour urinary excretion.
Electrolytes: Urinary Na, K and Cl measurements were obtained using an electrolyte analyzer (Easylite; Medica Co, Bedford Mass.). Samples were diluted 1:10, 1 part urine to 9 parts Easylyte Urine Diluent as per the manufactures instructions.
as §1

[2] = Procedure: Serum Electrolytes: Blood samples were collected via an intravenous catheter (Nexiva™ Becton Dickinson, Franklin Lakes, N.J.) at baseline and at 60 minute intervals post-treatment to examine changes in serum electrolyte balance (Na, K, and Cl^−).
[3] = tested on: T-regulatory cells (FOXP3+ T-regs), TH17 cells; assay: Circulating T-regulatory and TH17 cells in rats; format: in vivo
[4] = tested on: spleen cells (M1/M2 macrophages)
splenic macrophages = conditions: 3 days, 0.1M in drinking water (unpublished data)
[5] = compared to vehicle (0.1M NaCl)
[6] = healthy rats, 3 days of drinking, 0.1M
[7] = Spleen, 14 Days HS, 0.1M NaHCO3 in drinking water

O=C([O-])O.[Na+] [NaHCO3, sodium bicarbonate]
CD3 (% total kidney) (blood; 14 Days HS): 57 ± 2%
CD4 (% of CD3) (blood; 14 Days HS): 53 ± 2%
CD44 (% of CD3) (blood; 14 Days HS): 14 ± 2%
CD69 (% of CD3) (blood; 14 Days HS): 0.9 ± 0.3%
FOXP3 (% of CD3/CD4) (blood; 14 Days HS): 4.4 ± 0.6%
IL-17 (% of total kidney) (blood; 14 Days HS): 6 ± 1%
CD3 (blood; 3 days LS): 57 ± 2%
CD4 (blood; 3 days LS): 55 ± 1%
CD44 (blood; 3 days LS): 18 ± 1%
CD69 (blood; 3 days LS): 1.6 ± 0.5%
FOXP3 (blood; 3 days LS): 5.8 ± 0.7%
IL-17 (blood; 3 days LS): 5.6 ± 1.1%
urinary K excretion [1, 5]: no effect
urinary Na excretion [1, 5]: no effect
urinary Cl excretion ([1]; compared to vehicle, p=0.03): significantly lower
serum potassium ([2]; after single 2 g dose): decreased
Na ([2]; serum, Post-treatment, single 2 g dose in 250 ml water): 140.8 ± 0.5 mmol/L
anti-inflammatory T-regulatory cells [3, 6]: robust but identical increases
pro-inflammatory TH17 cells [3, 6]: decreases
circulating anti-inflammatory T cells (FOXP3+ T-regs) ([3]; rats, 4 days in drinking water): significantly increased
CD3 [4, 7]: 15.3 ± 0.8%
CD4 [4, 7]: 53 ± 1%
CD11b/c [4, 7]: 7.3 ± 0.6%
CD44 [4, 7]: 35 ± 2%
CD69 [4, 7]: 7.2 ± 0.9%
FOXP3 [4, 7]: 6 ± 0.5%
IL-10 [4, 7]: 7.5 ± 0.7%
IL-17 [4, 7]: 2.8 ± 0.6%
M1 [4, 7]: 5.8 ± 0.5%
M2 [4, 7]: 8.3 ± 0.5%
TNFα [4, 7]: 3 ± 0.5%
macrophage polarization in splenic tissue ([4]; high salt fed, p=0.005): polarization from predominately M1 to M2
M2 macrophages (splenic macrophages): no effect
splenic macrophages (splenic macrophages): increased

— patent US11324774B2, “Compositions of oral alkaline salts and metabolic acid inducers and uses thereof” (Augusta University Research Institute, Inc., priority 2018, dated 2022)
